Measurements as given in ChEMBL document CHEMBL1129320, “The enediyne antibiotics” (J Med Chem, 1996).
Each block holds one compound with its values, some of them ahead of it.

Legend:
[1] = test system: M21; assay: Cytotoxic activity against M-21 melanoma tumor cell lines.; type: functional, cell-based; conditions: Homo sapiens
[2] = test system: HMEC; assay: Cytotoxic activity against HMEC human mammary epithelial normal cell lines.; type: functional, cell-based
[3] = test system: OVCAR-4; assay: Cytotoxic activity against Ovcar-4 ovarian carcinoma tumor cell lines.; type: functional, cell-based; conditions: Homo sapiens
[4] = test system: HL-60; assay: Cytotoxic activity against HL-60 promyelocytic leukemia tumor cell lines.; type: functional, cell-based; conditions: Homo sapiens
[5] = test system: M14; assay: Cytotoxic activity against M-14 melanoma tumor cell lines.; type: functional, cell-based; conditions: Homo sapiens
[6] = test system: P388; assay: Cytotoxic activity against P-388 mouse leukemia cell lines.; type: functional, cell-based
[7] = test system: TCAF; assay: Cytotoxic activity against TCAF T-cell leukemia tumor cell lines.; type: functional, cell-based; conditions: Homo sapiens
[8] = test system: U-251; assay: Cytotoxic activity against U-251 MG glioblastoma tumor cell lines.; type: functional, cell-based; conditions: Homo sapiens
[9] = test system: HNBM; assay: Cytotoxic activity against HNBM bone marrow normal cell lines.; type: functional, cell-based; conditions: Homo sapiens
[10] = test system: RPMI-8226; assay: Cytotoxic activity against RPMI-8226 myeloma tumor cell lines.; type: functional, cell-based; conditions: Homo sapiens
[11] = test system: SK-MEL-28; assay: Cytotoxic activity against SK-Mel-28 melanoma tumor cell lines.; type: functional, cell-based; conditions: Homo sapiens
[12] = test system: L1210; assay: Cytotoxic activity against L-1210 mouse leukemia tumor cell lines.; type: functional, cell-based
[13] = test system: UCLA P-3; assay: Cytotoxic activity against UCLA P-3 lung carcinoma tumor cell lines.; type: functional, cell-based; conditions: Homo sapiens
[14] = test system: U-87 MG; assay: Cytotoxic activity against […] astrocytoma tumor cell lines.; type: functional, cell-based, U-87MG ATCC; conditions: Homo sapiens
[15] = test system: OVCAR-3; assay: Cytotoxic activity against Ovcar-3 ovarian carcinoma tumor cell lines.; type: functional, cell-based; conditions: Homo sapiens
[16] = test system: MCF7; assay: Cytotoxic activity against MCF-7 breast carcinoma tumor cell lines.; type: functional, cell-based; conditions: Homo sapiens
[17] = test system: NHDF; assay: Cytotoxic activity against NHDF normal human dermal fibroblast cell lines.; type: functional, cell-based
[18] = test system: TCAF-DAX; assay: Cytotoxic activity against TCAF-DAX T-cell leukemia tumor cell lines.; type: functional, cell-based; conditions: Homo sapiens
[19] = test system: H322; assay: Cytotoxic activity against H-322 lung carcinoma tumor cell lines.; type: functional, cell-based; conditions: Homo sapiens, NCI-H322
[20] = test system: CAPAN-1; assay: Cytotoxic activity against Capan-1 pancreatic carcinoma tumor cell lines.; type: functional, cell-based; conditions: Homo sapiens
[21] = test system: HT-29; assay: Cytotoxic activity against HT-29 Colon carcinoma tumor cell lines.; type: functional, cell-based; conditions: Homo sapiens
[22] = Half life at 37 degree Centigrade; type: ADME
[23] = Half life at 55 degree Centigrade; type: ADME
[24] = Half life at 110 degree Centigrade; type: ADME
[25] = test system: L1210; assay: Optimum dose against murine L1210 leukemia; type: functional, Mus musculus
[26] = test system: P388; assay: Optimum dose against P388 murine tumor cell line; type: functional, Mus musculus
[27] = test system: B16; assay: Optimum dose against solid neoplasm B-16 melanoma; type: functional, Mus musculus
[28] = test system: Colon 26 (Mus musculus); assay: Optimum dose against solid neoplasm colon 26

SMILES: O=C(OCCS(=O)(=O)c1ccccc1)N1c2ccc(OCCO)cc2[C@@]23O[C@]24CCC[C@H]3C#C/C=C\C#C[C@H]14
IC50 [1]: 1600 nM
IC50 [2]: 6300 nM
IC50 [3]: 780 nM
IC50 [4]: 0.036 nM
IC50 [5]: 1600 nM
IC50 [6]: 4.6 nM
IC50 [7]: 1.1 nM
IC50 [8]: 390 nM
IC50 [9]: 50000 nM
IC50 [10]: 7.7 nM
IC50 [11]: 3100 nM
IC50 [12]: 1.3 nM
IC50 [13]: 98 nM
IC50 [14]: 780 nM
IC50 [15]: 780 nM
IC50 [16]: 780 nM
IC50 [17]: 5000 nM
IC50 [18]: 1.7 nM
IC50 [19]: 390 nM
IC50 [20]: 3.1 nM
IC50 [21]: 1600 nM

T1/2 [22]: 4.5 s
SMILES: CNC1C(O[C@H]2C#C/C=C\C#C[C@]3(O)CC(=O)C(NC(=O)OC)[C@]24SCCC=C34)OC(C)C(O)C1O (stereo partly drawn)

SMILES: CC1=C(C)C(=O)C2=C(C#CCCCC(=O)C#C2)C1=O
half-life [23]: 0.533 h

half-life [24]: 74 h
SMILES: Cc1c(C)c(C(=O)OC(C)(C)C)c2c(c1C(=O)OC(C)(C)C)C#CCCCC(O)C#C2 (stereo not drawn)

SMILES: CC1=C(C)C(=O)C2=C(C#CCCCC(O)C#C2)C1=O (stereo not drawn)
half-life [23]: 2.6 h

SMILES: CCNC1COC(OC2C(OC3C#C/C=C\C#C[C@]4(O)CC(=O)C(NC(=O)OC)=C3/C4=C/CSSSC)OC(C)C(NOC3CC(O)C(SC(=O)c4c(C)c(I)c(O)c(OC)c4OC)C(C)O3)C2O)CC1OC (stereo partly drawn) [CALICHEAMICIN ALPHA1 I]
OD [25]: 5 µg/kg
OD [26]: 5 µg/kg
OD [27]: 5 µg/kg
OD [28]: 5 µg/kg

SMILES: COC(=O)NC1=C2/C(=C/CSSSC)[C@](O)(C#C/C=C\C#CC2OC2OC(C)C(NOC3CC(O)C(SC(=O)c4c(C)c(I)c(OC5OC(C)C(O)C(OC)C5O)c(OC)c4OC)C(C)O3)C(O)C2O)CC1=O (stereo partly drawn) [CALICHEAMICIN ALPHA3 I]
OD [25]: 5 µg/kg
OD [26]: 5 µg/kg
OD [27]: 5 µg/kg
OD [28]: 5 µg/kg

SMILES: COC(=O)NC1=C2/C(=C/CSSSC)[C@](O)(C#C/C=C\C#CC2OC2OC(C)C(NOC3CC(O)C(SC(=O)c4c(C)c(Br)c(OC5OC(C)C(O)C(OC)C5O)c(OC)c4OC)C(C)O3)C(O)C2OC2CC(OC)C(NC(C)C)CO2)CC1=O (stereo partly drawn) [CALICHEAMICIN BETA1 BR]
OD [25]: 5 µg/kg
OD [26]: 5 µg/kg
OD [27]: 5 µg/kg
OD [28]: 5 µg/kg

SMILES: COC(=O)NC1=C2/C(=C/CSSSC)[C@](O)(C#C/C=C\C#CC2OC2OC(C)C(NOC3CC(O)C(SC(=O)c4c(C)c(I)c(OC5OC(C)C(O)C(OC)C5O)c(OC)c4OC)C(C)O3)C(O)C2OC2CC(OC)C(NC(C)C)CO2)CC1=O (stereo partly drawn) [CALICHEAMICIN BETA1 I]
OD [25]: 5 µg/kg
OD [26]: 5 µg/kg
OD [27]: 5 µg/kg
OD [28]: 5 µg/kg

SMILES: CNC1COC(OC2C(OC3C#C/C=C\C#C[C@]4(O)CC(=O)C(NC(=O)OC)=C3/C4=C/CSSSC)OC(C)C(NOC3CC(O)C(SC(=O)c4c(C)c(I)c(OC5OC(C)C(O)C(OC)C5O)c(OC)c4OC)C(C)O3)C2O)CC1OC (stereo partly drawn) [CALICHEAMICIN DELTA1 I]
OD [25]: 5 µg/kg
OD [26]: 5 µg/kg
OD [27]: 5 µg/kg
OD [28]: 5 µg/kg

SMILES: CCNC1COC(OC2C(OC3C#C/C=C\C#C[C@]4(O)CC(=O)C(NC(=O)OC)=C3/C4=C/CSSSC)OC(C)C(NOC3CC(O)C(SC(=O)c4c(C)c(Br)c(OC5OC(C)C(O)C(OC)C5O)c(OC)c4OC)C(C)O3)C2O)CC1OC (stereo partly drawn) [CALICHEAMICIN GAMMA1 BR]
OD [25]: 5 µg/kg
OD [26]: 5 µg/kg
OD [27]: 5 µg/kg
OD [28]: 5 µg/kg

SMILES: CCN[C@H]1CO[C@@H](O[C@H]2[C@H](O[C@H]3C#C/C=C/C#C[C@@]4(O)CC(=O)C(NC(=O)OC)=C3/C4=C\CSSSC)O[C@H](C)[C@@H](NO[C@H]3C[C@H](O)[C@H](SC(=O)c4c(C)c(I)c(O[C@@H]5O[C@@H](C)[C@H](O)[C@@H](OC)[C@H]5O)c(OC)c4OC)[C@@H](C)O3)[C@@H]2O)C[C@@H]1OC [CALICHEAMICIN GAMMA1 I]
OD [25]: 5 µg/kg
OD [26]: 5 µg/kg
OD [27]: 5 µg/kg
OD [28]: 5 µg/kg
